Earlier results in publication PMC9516332 (Frontiers in Oncology, 2022).
Read-outs that look alike come from different tables or passages of the source.

Assays:
Details in all cases: cited from earlier work
[1] = biological target: panel of 255 wild-type kinases (Homo sapiens, UniProt P10721)
[2] = biological target: panel of 255 wild-type kinases (Homo sapiens, UniProt O94804)
[3] = biological target: panel of 255 wild-type kinases (Homo sapiens, UniProt P78368)
[4] = biological target: panel of 255 wild-type kinases (Homo sapiens, UniProt P04629)
[5] = biological target: panel of 255 wild-type kinases (Homo sapiens, UniProt Q15375)
[6] = biological target: panel of 255 wild-type kinases (Homo sapiens, UniProt Q13131)
[7] = biological target: panel of 255 wild-type kinases (Homo sapiens, UniProt Q9H422)
[8] = biological target: panel of 255 wild-type kinases (Homo sapiens, UniProt Q9H1R3)
[9] = biological target: panel of 255 wild-type kinases (Homo sapiens, UniProt P22607)
[10] = biological target: panel of 255 wild-type kinases (Homo sapiens, UniProt P11309)
[11] = biological target: panel of 255 wild-type kinases (Homo sapiens, UniProt P23443)
[12] = biological target: panel of 255 wild-type kinases (Homo sapiens, UniProt Q9Y463)
[13] = biological target: T1, panel of 255 wild-type kinases (Homo sapiens, UniProt Q08881)
T1 sequence (Q08881 1-620): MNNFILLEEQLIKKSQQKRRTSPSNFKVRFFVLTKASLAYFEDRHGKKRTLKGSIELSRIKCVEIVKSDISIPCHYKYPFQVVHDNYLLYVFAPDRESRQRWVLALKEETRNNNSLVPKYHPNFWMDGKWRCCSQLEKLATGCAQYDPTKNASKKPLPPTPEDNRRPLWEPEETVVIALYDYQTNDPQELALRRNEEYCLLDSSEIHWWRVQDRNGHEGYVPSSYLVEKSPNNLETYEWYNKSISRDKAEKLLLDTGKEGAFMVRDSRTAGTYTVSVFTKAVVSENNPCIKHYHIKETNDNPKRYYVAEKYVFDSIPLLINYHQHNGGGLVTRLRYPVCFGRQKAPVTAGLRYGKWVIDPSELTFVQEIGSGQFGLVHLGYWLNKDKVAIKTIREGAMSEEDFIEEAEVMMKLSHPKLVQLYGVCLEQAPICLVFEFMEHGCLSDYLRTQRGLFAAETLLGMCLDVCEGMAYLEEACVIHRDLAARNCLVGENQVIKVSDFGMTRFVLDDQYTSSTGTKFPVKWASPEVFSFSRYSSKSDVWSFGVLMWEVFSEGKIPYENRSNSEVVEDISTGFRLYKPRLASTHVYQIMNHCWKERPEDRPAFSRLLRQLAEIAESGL

[14] = biological target: T2, panel of 255 wild-type kinases (Homo sapiens, UniProt Q13188)
T2 sequence (Q13188 1-491): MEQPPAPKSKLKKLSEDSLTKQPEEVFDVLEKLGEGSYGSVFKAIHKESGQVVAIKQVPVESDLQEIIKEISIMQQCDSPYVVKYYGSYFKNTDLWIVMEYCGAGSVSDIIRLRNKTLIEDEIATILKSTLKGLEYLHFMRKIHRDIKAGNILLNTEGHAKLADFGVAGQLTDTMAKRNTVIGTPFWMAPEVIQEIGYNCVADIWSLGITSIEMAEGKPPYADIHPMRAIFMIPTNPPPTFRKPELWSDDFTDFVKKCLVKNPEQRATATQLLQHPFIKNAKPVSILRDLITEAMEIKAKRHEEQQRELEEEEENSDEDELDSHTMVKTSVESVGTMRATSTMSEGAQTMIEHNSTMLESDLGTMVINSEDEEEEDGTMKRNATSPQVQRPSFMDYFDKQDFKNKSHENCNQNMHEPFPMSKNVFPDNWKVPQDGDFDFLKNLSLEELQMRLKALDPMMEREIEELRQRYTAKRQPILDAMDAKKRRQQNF

[15] = biological target: panel of 255 wild-type kinases (Homo sapiens, UniProt P00533)
[16] = kinase KIT, 1 µmol/L single concentration, ref DOI: 10.1158/1535-7163.MCT-18-0877
[17] = kinase LOK, 1 µmol/L single concentration, ref DOI: 10.1158/1535-7163.MCT-18-0877
[18] = kinase CK1γ2, 1 µmol/L single concentration, ref DOI: 10.1158/1535-7163.MCT-18-0877
[19] = kinase TRKA, 1 µmol/L single concentration, ref DOI: 10.1158/1535-7163.MCT-18-0877
[20] = kinase EPHA7, 1 µmol/L single concentration, ref DOI: 10.1158/1535-7163.MCT-18-0877
[21] = AMPKα1/β1/γ1 kinase assay, 1 µmol/L single concentration, ref DOI: 10.1158/1535-7163.MCT-18-0877
[22] = kinase HIPK3, 1 µmol/L single concentration, ref DOI: 10.1158/1535-7163.MCT-18-0877
[23] = kinase skMLCK, 1 µmol/L single concentration, ref DOI: 10.1158/1535-7163.MCT-18-0877
[24] = kinase FGFR3, 1 µmol/L single concentration, ref DOI: 10.1158/1535-7163.MCT-18-0877
[25] = kinase PIM1, 1 µmol/L single concentration, ref DOI: 10.1158/1535-7163.MCT-18-0877
[26] = p70S6K, 1 µmol/L single concentration, ref DOI: 10.1158/1535-7163.MCT-18-0877
[27] = kinase DYRK1B, 1 µmol/L single concentration, ref DOI: 10.1158/1535-7163.MCT-18-0877
[28] = kinase ITK, 1 µmol/L single concentration, ref DOI: 10.1158/1535-7163.MCT-18-0877
[29] = MST2, 1 µmol/L single concentration, ref DOI: 10.1158/1535-7163.MCT-18-0877
[30] = kinase EGFR, 1 µmol/L single concentration, ref DOI: 10.1158/1535-7163.MCT-18-0877

SMILES | %-inhibition at 1 µmol/L, KIT [1, 16] [%] | %-inhibition at 1 µmol/L, LOK [2, 17] [%] | %-inhibition at 1 µmol/L, CK1γ2 [3, 18] [%] | %-inhibition at 1 µmol/L, TRKA [4, 19] [%] | %-inhibition at 1 µmol/L, EPHA7 [5, 20] [%] | %-inhibition AMPKα1/β1/γ1 [6, 21] [%] | %-inhibition at 1 µmol/L, HIPK3 [7, 22] [%] | %-inhibition at 1 µmol/L, skMLCK [8, 23] [%] | %-inhibition at 1 µmol/L, FGFR3 [9, 24] [%] | %-inhibition at 1 µmol/L, PIM1 [10, 25] [%] | %-inhibition, p70S6K [11, 26] [%] | %-inhibition at 1 µmol/L, DYRK1B [12, 27] [%] | %-inhibition at 1 µmol/L, ITK [13, 28] [%] | %-inhibition, MST2 [14, 29] [%] | %-inhibition at 1 µmol/L, EGFR [15, 30] [%] | also measured
CC#CC(=O)N1CCC[C@H]1c1nc(-c2ccc(C(=O)Nc3ccccn3)cc2)c2c(N)nccn12 [acalabrutinib] | 3 | 3.37 | -7 | 13 | -3.54 | -5 | -12 | -17 | -1.31 | -4.28 | -14 | -19 | 0.871 | -3.46 | 19 | 
COc1cc(N2CCC(N3CCN(C)CC3)CC2)ccc1Nc1ncc(Cl)c(Nc2ccccc2P(C)(C)=O)n1 [brigatinib] |  |  |  |  |  |  |  |  |  |  |  |  |  |  |  | %-inhibition at 1 µmol/L, KIT [1]: 51%; %-inhibition at 1 µmol/L, LOK [2]: 96%; %-inhibition at 1 µmol/L, CK1γ2 [3]: -2.5%; %-inhibition at 1 µmol/L, TRKA [4]: 83%; %-inhibition at 1 µmol/L, EPHA7 [5]: 21%; %-inhibition AMPKα1/β1/γ1 [6]: 80%; %-inhibition at 1 µmol/L, HIPK3 [7]: 7%; %-inhibition at 1 µmol/L, skMLCK [8]: -6%; %-inhibition at 1 µmol/L, FGFR3 [9]: 93%; %-inhibition at 1 µmol/L, PIM1 [10]: 3%; %-inhibition, p70S6K [11]: 33%; %-inhibition at 1 µmol/L, DYRK1B [12]: 41%; %-inhibition at 1 µmol/L, ITK [13]: 95%; %-inhibition, MST2 [14]: 20%; %-inhibition at 1 µmol/L, EGFR [15]: 97%
O=C(c1ccc(F)c(F)c1Nc1ccc(I)cc1F)N1CC(O)([C@@H]2CCCCN2)C1 [cobimetinib] | -17 | 10 | 2.37 | 18 | 1.75 | -0.873 | 2.74 | -10 | 5 | 1 | 19 | 2 | 4 | 1.8 | 8 | 
CO[C@@H]1[C@H](N(C)C(=O)c2ccccc2)C[C@H]2O[C@]1(C)n1c3ccccc3c3c4c(c5c6ccccc6n2c5c31)C(=O)NC4 [midostaurin] |  | 98 | -2.45 | 100 | 19 | 86 |  | 0.93 |  | 52 | 82 |  | 73 | 98 | 69 | 
CC(=O)Nc1cccc(-n2c(=O)n(C3CC3)c(=O)c3c(Nc4ccc(I)cc4F)n(C)c(=O)c(C)c32)c1 [trametinib] |  |  |  |  |  |  |  |  |  |  |  |  |  |  |  | %-inhibition at 1 µmol/L, KIT ([1]; kinase KIT, 1 µmol/L single concentration, ref DOI: 10.1371/journal.pone.0092146): -0.648%; %-inhibition at 1 µmol/L, LOK ([2]; kinase LOK, 1 µmol/L single concentration, ref DOI: 10.1371/journal.pone.0092146): 12%; %-inhibition at 1 µmol/L, CK1γ2 ([3]; kinase CK1γ2, 1 µmol/L single concentration, ref DOI: 10.1371/journal.pone.0092146): -2.15%; %-inhibition at 1 µmol/L, TRKA ([4]; kinase TRKA, 1 µmol/L single concentration, ref DOI: 10.1371/journal.pone.0092146): -1.17%; %-inhibition at 1 µmol/L, EPHA7 ([5]; kinase EPHA7, 1 µmol/L single concentration, ref DOI: 10.1371/journal.pone.0092146): -5%; %-inhibition AMPKα1/β1/γ1 ([6]; AMPKα1/β1/γ1 kinase assay, 1 µmol/L single concentration, ref DOI: 10.1371/journal.pone.0092146): -12%; %-inhibition at 1 µmol/L, HIPK3 ([7]; kinase HIPK3, 1 µmol/L single concentration, ref DOI: 10.1371/journal.pone.0092146): 0.0849%; %-inhibition at 1 µmol/L, skMLCK ([8]; kinase skMLCK, 1 µmol/L single concentration, ref DOI: 10.1371/journal.pone.0092146): -3.34%; %-inhibition at 1 µmol/L, FGFR3 ([9]; kinase FGFR3, 1 µmol/L single concentration, ref DOI: 10.1371/journal.pone.0092146): -5.68%; %-inhibition at 1 µmol/L, PIM1 ([10]; kinase PIM1, 1 µmol/L single concentration, ref DOI: 10.1371/journal.pone.0092146): 4.44%; %-inhibition, p70S6K ([11]; p70S6K, 1 µmol/L single concentration, ref DOI: 10.1371/journal.pone.0092146): -1.39%; %-inhibition at 1 µmol/L, DYRK1B ([12]; kinase DYRK1B, 1 µmol/L single concentration, ref DOI: 10.1371/journal.pone.0092146): 3.34%; %-inhibition at 1 µmol/L, ITK ([13]; kinase ITK, 1 µmol/L single concentration, ref DOI: 10.1371/journal.pone.0092146): -7.56%; %-inhibition, MST2 ([14]; MST2, 1 µmol/L single concentration, ref DOI: 10.1371/journal.pone.0092146): -3%; %-inhibition at 1 µmol/L, EGFR ([15]; kinase EGFR, 1 µmol/L single concentration, ref DOI: 10.1371/journal.pone.0092146): -0.0959%
